From US9458133B2, “Isoquinolines as potassium ion channel inhibitors” (BRISTOL-MYERS SQUIBB COMPANY, priority 2013, dated 2016) come the findings set out here.

Molecules are shown by their SMILES.

This experiment addresses T1, human Kv 1.5 (Homo sapiens, UniProt P22460).
T1 construct: expressed in transfected cells; host or cells: mouse L-929 fibroblasts stably expressing human Kv1.5
In words: Block of IKur current in patch clamped L-929 cells stably expressing human Kv1.5. Type of experiment: cell-based. Conditions: L929, 0.3 μM; patch clamped mammalian L-929 cells expressing human Kv1.5 (IKur); read-out: KV1_5% Inh L929 @0.3 μM. The source says:
Synders, D. J. et al., “A rapidly activating and slowly inactivating potassium channel cloned from human heart: functional analysis after stable mammalian cell culture expression”, J. Gen. Physiol., 101:513-543 (1993). […]

T1 sequence (P22460 whole entry): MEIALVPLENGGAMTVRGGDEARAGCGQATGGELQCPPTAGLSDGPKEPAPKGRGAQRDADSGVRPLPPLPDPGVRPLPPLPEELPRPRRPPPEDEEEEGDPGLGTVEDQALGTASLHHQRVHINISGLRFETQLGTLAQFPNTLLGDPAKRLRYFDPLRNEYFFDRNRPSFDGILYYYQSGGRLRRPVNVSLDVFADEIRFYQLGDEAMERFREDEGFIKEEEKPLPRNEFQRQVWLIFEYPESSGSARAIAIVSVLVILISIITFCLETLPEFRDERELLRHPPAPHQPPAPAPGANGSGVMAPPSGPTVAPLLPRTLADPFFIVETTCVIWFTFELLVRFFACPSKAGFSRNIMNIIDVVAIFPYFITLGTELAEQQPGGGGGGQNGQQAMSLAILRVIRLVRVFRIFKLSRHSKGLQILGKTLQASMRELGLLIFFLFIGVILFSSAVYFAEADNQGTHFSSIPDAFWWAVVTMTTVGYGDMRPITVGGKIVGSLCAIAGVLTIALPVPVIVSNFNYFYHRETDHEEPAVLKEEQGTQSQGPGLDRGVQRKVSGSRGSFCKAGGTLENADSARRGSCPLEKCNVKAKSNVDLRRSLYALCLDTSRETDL

For `NS(=O)(=O)c1cncc(-c2c(Cl)nc(NCc3ccccc3)c3c(-c4ccccc4)cccc23)c1` [Example 75, 5-(1-(benzylamino)-3-chloro-8-phenylisoquinolin-4-yl)pyridine-3-sulfonamide], the inhibition at 0.3 µM came out at 97.3%. In the case of `NS(=O)(=O)c1ccc(-c2cnc(NCc3ccccn3)c3c(-c4ccccc4)cccc23)cc1` [Example 76, 4-(8-phenyl-1-(pyridin-2-ylmethylamino)isoquinolin-4-yl)benzenesulfonamide] it was 97.2%; in that of `Nc1ccc(-c2c(Cl)nc(NCc3ccccn3)c3c(-c4ccccc4)cccc23)cn1` [Example 77, 4-(6-aminopyridin-3-yl)-3-chloro-8-phenyl-N-(pyridin-2-ylmethyl)isoquinolin-1-amine], 99%; in that of `NS(=O)(=O)c1cccc(-c2c(Cl)nc(NCc3ccccc3)c3c(-c4ccccc4)cccc23)c1` [Example 78, 3-(1-(benzylamino)-3-chloro-8-phenylisoquinolin-4-yl)benzenesulfonamide], 91%. For `CC(Nc1nc(Cl)c(-c2cccc(S(N)(=O)=O)c2)c2cccc(-c3ccccc3)c12)c1ccccc1` (stereo not shown) [Example 79, 3-(3-chloro-8-phenyl-1-(1-phenylethylamino)isoquinolin-4-yl)benzenesulfonamide] the value was 67.5%; for `CC(C)C(Nc1nc(Cl)c(-c2cncc(S(N)(=O)=O)c2)c2cccc(-c3ccccc3)c12)c1ccccn1` (stereo not shown) [Example 80, 5-(3-chloro-1-(2-methyl-1-(pyridin-2-yl)propylamino)-8-phenylisoquinolin-4-yl)pyridine-3-sulfonamide], 92.5%; for `NS(=O)(=O)c1cncc(-c2cnc(NCC3CCCCO3)c3c(-c4ccccc4)cccc23)c1` (stereo not shown) [Example 82, 5-(8-phenyl-1-((tetrahydro-2H-pyran-2-yl)methylamino)isoquinolin-4-yl)pyridine-3-sulfonamide], 85%.

With `Clc1nc(NCc2ccccc2)c2c(-c3ccccc3)cccc2c1C1=CCOCC1` [Example 83, N-benzyl-3-chloro-4-(3,6-dihydro-2H-pyran-4-yl)-8-phenylisoquinolin-1-amine], the inhibition at 0.3 µM is 19.3%.

Consider `NS(=O)(=O)c1cccc(-c2c(Cl)nc(NCc3ccccn3)c3c(-c4ccccc4)cccc23)c1` [Example 84, 3-(3-chloro-8-phenyl-1-(pyridin-2-ylmethylamino)isoquinolin-4-yl)benzenesulfonamide], for which the inhibition at 0.3 µM stood at 98.4%. For `NS(=O)(=O)c1cccc(-c2cnc(NCc3ccccn3)c3c(-c4ccccc4)cccc23)c1` [Example 85, 3-(8-phenyl-1-(pyridin-2-ylmethylamino)isoquinolin-4-yl)benzenesulfonamide] the value was 99%.
